The nature of data set [1]: Selectivity index, ratio of CC50 for cytotoxicity against human MT4 cells to EC50 for antiviral activity against wild type HIV-1 IIIB infected in human MT4 cells. In kind it is toxicity, cell-based. The note with it: read-out: Ratio CC50/EC50.
Data set [2] can be described thus: Cytotoxicity against human MT4 cells assessed as reduction in cell viability incubated for 5 days by MTT assay. In kind it is toxicity, cell-based. The note with it: time 5 day.
In data set [3] the test system is Human immunodeficiency virus 1. The data set is described as follows: Antiviral activity against wild type HIV-1 IIIB infected in human MT4 cells assessed as protection against virus-induced cytopathic effect incubated for 5 days by MTT assay. To be noted: Human immunodeficiency virus 1, IIIB, MT4, 120 h. It is filed as functional, organism-based.
Data set [4] relates to Human immunodeficiency virus 1. The data set can be described thus: Antiviral activity against wild type HIV-1 IIIB harboring reverse transcriptase […] mutant infected in human MT4 cells assessed as protection against virus-induced cytopathic effect incubated for 5 days by MTT assay. In kind it is functional, organism-based. To be noted: Human immunodeficiency virus 1, IIIB, MT4, 120 h.

Data set [5] is described as follows: Resistant factor, ratio of EC50 for antiviral activity against HIV-1 IIIB harboring reverse transcriptase […] mutant to EC50 for antiviral activity against wild type HIV-1 IIIB. It is filed as functional.
For data set [6], the system named is Human immunodeficiency virus 1. The data set is described as follows: Antiviral activity against wild type HIV-1 IIIB harboring reverse transcriptase K103N mutant infected in human MT4 cells assessed as protection against virus-induced cytopathic effect incubated for 5 days by MTT assay. In kind it is functional, organism-based. To be noted: Human immunodeficiency virus 1, IIIB, MT4, 120 h.

Data set [7] is described as follows: Resistant factor, ratio of EC50 for antiviral activity against HIV-1 IIIB harboring reverse transcriptase K103N mutant to EC50 for antiviral activity against wild type HIV-1 IIIB. In kind it is functional.
Data set [8] relates to Human immunodeficiency virus 1. The data set is described as follows: Antiviral activity against wild type HIV-1 IIIB harboring reverse transcriptase Y181C mutant infected in human MT4 cells assessed as protection against virus-induced cytopathic effect incubated for 5 days by MTT assay. It is filed as functional, organism-based. To be noted: Human immunodeficiency virus 1, IIIB, MT4, 120 h.

The nature of data set [9]: Resistant factor, ratio of EC50 for antiviral activity against HIV-1 IIIB harboring reverse transcriptase Y181C mutant to EC50 for antiviral activity against wild type HIV-1 IIIB. In kind it is functional.
The test system of data set [10] is Human immunodeficiency virus 1. The data set is described as follows: Antiviral activity against wild type HIV-1 IIIB harboring reverse transcriptase Y188L mutant infected in human MT4 cells assessed as protection against virus-induced cytopathic effect incubated for 5 days by MTT assay. It is filed as functional, organism-based. To be noted: Human immunodeficiency virus 1, IIIB, MT4, 120 h.

The nature of data set [11]: Resistant factor, ratio of EC50 for antiviral activity against HIV-1 IIIB harboring reverse transcriptase Y188L mutant to EC50 for antiviral activity against wild type HIV-1 IIIB. It is filed as functional.
For data set [12], the system named is Human immunodeficiency virus 1. The data set is described as follows: Antiviral activity against wild type HIV-1 IIIB harboring reverse transcriptase E138K mutant infected in human MT4 cells assessed as protection against virus-induced cytopathic effect incubated for 5 days by MTT assay. In kind it is functional, organism-based. To be noted: Human immunodeficiency virus 1, IIIB, MT4, 120 h.

Data set [13] is described as follows: Resistant factor, ratio of EC50 for antiviral activity against HIV-1 IIIB harboring reverse transcriptase E138K mutant to EC50 for antiviral activity against wild type HIV-1 IIIB. It is filed as functional.
In data set [14] the target is Human immunodeficiency virus type 1 reverse transcriptase (Human immunodeficiency virus 1, UniProt Q72547). The data set can be described thus: Inhibition of recombinant wild type HIV-1 reverse transcriptase using DNA/RNA as substrate incubated for 40 mins by Pico-green dye based spectrofluorometric analysis.

Regarding `N#Cc1ccc(Nc2nccc(Oc3ccc4cc(C#N)ccc4c3Br)n2)cc1`, the selectivity ratio in data set [1] amounted to 181000. The CC50 at 120 h in [2] is 283000 nM.

On to `N#Cc1ccc(Nc2ncc(C(N)=O)c(Oc3ccc(-c4ccc(C#N)cc4)cc3Cl)n2)cc1`, for which the EC50 was 102 nM in data set [3]; 76000 nM in data set [4]; 5530 nM in [6]; 129000 nM in data set [8]; 219000 nM in [10]; 821 nM in [12]. The selectivity ratio in data set [1] was more than 2650. Also, the CC50 at 120 h in data set [2] is more than 270000 nM. The “Ratio EC50” value in [5] was 746; in data set [7] it was 54; in data set [9] it was 1261; in data set [11], 2150; in [13] it was 8. Moreover, the IC50 in data set [14] worked out at 28 nM.

Turning to `CCNC(=O)c1cnc(Nc2ccc(C#N)cc2)nc1Oc1c(C)cc(-c2ccc(C#N)cc2)cc1C`, the EC50 in data set [3] was 6 nM; in data set [4] it was 25 nM; in [6] it was 13 nM; in [8] it was 68 nM; in data set [10], 95 nM; in data set [12] it was 28 nM. For the same molecule, the selectivity ratio in data set [1] was 22500. Moreover, in data set [2], the CC50 at 120 h stood at 151000 nM. Moreover, the “Ratio EC50” value in data set [5] turned out to be 3.7; in data set [7], 1.9; in data set [9], 10; in data set [11], 14; in [13] it was 4.2. In addition, the IC50 in data set [14] is 135 nM.

As to `CNC(=O)c1cnc(Nc2ccc(C#N)cc2)nc1Oc1c(C)cc(-c2ccc(C#N)cc2)cc1C`, the EC50 was 3 nM in data set [3]; 9 nM in [4]; 5 nM in [6]; 27 nM in data set [8]; 34 nM in data set [10]; 6 nM in data set [12]. Moreover, in data set [1], the selectivity ratio is more than 12700. In addition, the CC50 at 120 h in [2] was more than 42200 nM. Moreover, the “Ratio EC50” value came to 2.7 in data set [5]; 1.5 in data set [7]; 8.2 in data set [9]; 10 in data set [11]; 1.8 in [13]. The IC50 in [14] was found to be 56 nM.

Take `Cc1cc(-c2ccc(C#N)cc2)cc(C)c1Oc1nc(Nc2ccc(C#N)cc2)ncc1C(=O)NCCCO`: the EC50 in [3] worked out at 5 nM; in [4], 15 nM; in [6], 9 nM; in data set [8], 51 nM; in [10] it was 50 nM. For the same molecule, the selectivity ratio in data set [1] is 5590. The CC50 at 120 h in data set [2] is 31400 nM. Also, the “Ratio EC50” value in [5] stood at 2.7; in data set [7], 1.6; in data set [9], 9.1; in [11], 8.9; in [13], 0.9. Moreover, the IC50 in data set [14] was found to be 71 nM.

With `Cc1cc(-c2ccc(C#N)cc2)ccc1Oc1nc(Nc2ccc(C#N)cc2)ncc1C(N)=O`, the EC50 worked out at 31 nM in data set [3]; 994 nM in data set [4]; 94 nM in data set [6]; 4340 nM in [8]; 7120 nM in data set [10]; 115 nM in data set [12]. For the same molecule, the selectivity ratio in [1] is more than 9000. For the same molecule, in data set [2], the CC50 at 120 h is more than 280000 nM. Moreover, the “Ratio EC50” value worked out at 32 in data set [5]; 3 in [7]; 140 in data set [9]; 230 in data set [11]; 3.7 in data set [13]. The IC50 in data set [14] amounted to 19 nM.

Regarding `Cc1cc(-c2ccc(C#N)cc2)cc(C)c1Oc1nc(Nc2ccc(C#N)cc2)ncc1C(N)=O`, the EC50 came to 16 nM in data set [3]; 22 nM in data set [4]; 26 nM in data set [6]; 206 nM in [8]; 150 nM in data set [10]; 39 nM in data set [12]. For the same molecule, the selectivity ratio in data set [1] is more than 2760. For the same molecule, in [2], the CC50 at 120 h was more than 43400 nM. The “Ratio EC50” value in data set [5] came to 1.4; in data set [7], 1.6; in [9], 13; in data set [11], 9.4; in [13] it was 2.4. In addition, in [14], the IC50 is 26 nM.

Regarding `COc1cc(-c2ccc(C#N)cc2)ccc1Oc1nc(Nc2ccc(C#N)cc2)ncc1C(N)=O`, the EC50 in data set [3] stood at 18 nM; in [4], 6 nM; in [6], 4 nM; in [8] it was 136 nM; in [10], 191 nM. Moreover, in [1], the selectivity ratio was more than 15300. Besides, in data set [2], the CC50 at 120 h was more than 276000 nM. Also, the “Ratio EC50” value in [5] came to 0.3; in data set [7] it was 0.2; in data set [9], 7.6; in data set [11], 11; in [13] it was 1. Further, the IC50 in data set [14] came out at 28 nM.

Take `CCCNC(=O)c1cnc(Nc2ccc(C#N)cc2)nc1Oc1c(C)cc(-c2ccc(C#N)cc2)cc1C`: the EC50 in data set [3] was determined as 13 nM; in data set [4], 55 nM; in data set [6] it was 31 nM; in [8] it was 196 nM; in data set [10] it was 275 nM; in data set [12], 39 nM. For the same molecule, the selectivity ratio in [1] amounted to 14700. Further, in data set [2], the CC50 at 120 h was determined as 86600 nM. For the same molecule, the “Ratio EC50” value stood at 4.2 in data set [5]; 2.4 in data set [7]; 15 in [9]; 21 in [11]; 3 in data set [13]. In addition, the half-inhibitory concentration (IC50) in [14] is 191 nM.

As for `N#Cc1ccc(Nc2ncc(C(N)=O)c(Oc3c(F)cc(-c4ccc(C#N)cc4)cc3F)n2)cc1`, the EC50 is 30 nM in data set [3]; 1210 nM in data set [4]; 175 nM in data set [6]; 10900 nM in data set [8]; 35300 nM in data set [10]; 159 nM in data set [12]. Moreover, the selectivity ratio in data set [1] is more than 1780. Further, in data set [2], the CC50 at 120 h was more than 53400 nM. For the same molecule, the “Ratio EC50” value in [5] was determined as 40; in [7], 5.8; in data set [9], 362; in [11], 1178; in data set [13], 5.3. Also, the IC50 in data set [14] stood at 21 nM.

Take `Cc1cc(-c2ccc(C#N)cc2)cc(Cl)c1Oc1nc(Nc2ccc(C#N)cc2)ncc1C(N)=O`: the EC50 in [3] came to 33 nM; in data set [4], 49 nM; in [6], 31 nM; in data set [8] it was 35 nM; in data set [10], 94 nM; in data set [12] it was 5 nM. In addition, in data set [1], the selectivity ratio was more than 1270. Besides, the CC50 at 120 h in data set [2] was more than 41600 nM. Further, the “Ratio EC50” value in data set [5] was 1.5; in data set [7] it was 0.9; in data set [9], 1.1; in data set [11], 2.8; in data set [13] it was 0.2. For the same molecule, in [14], the IC50 was found to be 66 nM.

As for `N#Cc1ccc(Nc2ncc(C(N)=O)c(Oc3ccc(-c4ccc(C#N)cc4)cc3F)n2)cc1`, the EC50 in [3] is 162 nM; in data set [4], 231000 nM; in data set [6], 63400 nM; in data set [8], more than 278000 nM; in [10] it was more than 278000 nM; in data set [12], 1610 nM. Besides, the selectivity ratio in data set [1] was more than 1720. The CC50 at 120 h in [2] was more than 278000 nM. Besides, the “Ratio EC50” value in data set [5] is reported as 1429; in [7], 391; in data set [9] it was more than 1713; in data set [11], more than 1713; in [13], 9.9. For the same molecule, in [14], the IC50 worked out at 25 nM.

Take `O=C1Nc2ccc(Cl)cc2[C@@](C#CC2CC2)(C(F)(F)F)O1` [EFAVIRENZ]: the EC50 in [3] stood at 7 nM; in [4] it was 44 nM; in [6] it was 102 nM; in [8] it was 7 nM; in [10], 290 nM; in data set [12] it was 6 nM. The CC50 at 120 h in data set [2] was more than 6340 nM.

For the molecule `Cc1cc(C#N)cc(C)c1Oc1nc(Nc2ccc(C#N)cc2)nc(N)c1Br` [ETRAVIRINE], the EC50 turned out to be 6 nM in data set [3]; 7 nM in data set [4]; 3 nM in data set [6]; 12 nM in [8]; 20 nM in [10]; 7 nM in data set [12]. Besides, the CC50 at 120 h in data set [2] was more than 4610 nM.

`Cc1ccnc2c1NC(=O)c1cccnc1N2C1CC1` [NEVIRAPINE]: the CC50 at 120 h in [2] is more than 15000 nM. Also, the EC50 in data set [4] is 2100 nM; in [6], more than 10100 nM; in data set [8], more than 15900 nM; in data set [10], more than 15900 nM; in data set [12], 210 nM.

Take `Cc1cc(/C=C/C#N)cc(C)c1Nc1ccnc(Nc2ccc(C#N)cc2)n1` [RILPIVIRINE]: the EC50 in data set [4] is 2 nM; in data set [6], 1 nM; in [8], 4 nM.

The record behind these values is ChEMBL document CHEMBL5380843 (J Med Chem, 2023).
